Reference: publication PMC4893161, “The Dynamic Localization of Cytoplasmic Dynein in Neurons Is Driven by Kinesin-1” (Neuron, 2016)

Legend:
[1] = test system: anterograde transport of dynein-GFP in axons of primary hippocampal neurons; assay: Slow axonal transport photobleaching assay (dynein-GFP midpoint displacement); assay type: cell-based, mouse; conditions: for mean velocity of dynein-GFP displacement / mean velocity of dynein-GFP: 3 cultures; for mean velocity of dynein-GFP: 500 ng peptide complexed with Chariot reagent, pre-treated 45–60 min; for mean velocity of dynein-GFP / kymographs with no or retrograde bias: n = 27 (control) and 29 (DIC1a) axons
Method: Primary hippocampal neurons from dynein-GFP mice were cultured for 8–10 DIV in 900 μm microfluidic devices in order to image single axons of known polarity. Post bleach motility was imaged for 60 s at 0.5 fps. A line scan was made for every frame of the time series, then movement of the photo-protected dynein-GFP pool was quantified by defining retrograde and anterograde edges at the half-maximal fluorescence value and tracking the displacement of the midpoint (Figure 6B). The peak of fluorescence intensity decreased with time as the dynein-GFP pool shifted in both anterograde and retrograde directions. However, the relative midpoint could be seen moving with a clear bias in the anterograde direction for several seconds (Figure 6C), particularly when overlaid onto the more standard kymograph representation of axonal transport (Figure 6D). […] By fitting a linear regression to each relative midpoint position over time, we observed anterograde velocities ranging from 0.01 to 0.1 μm/s. However, ∼80% of events were in the 0.01 to 0.05 μm/s range or approximately 1–5 mm a day. All net anterograde velocities were consistent with known speeds of slow axonal transport of cytoplasmic dynein in vivo ([Dillman et al., 1996a], [Dillman et al., 1996b]).
First, we tested whether the anterograde transport of dynein was microtubule dependent, using nocodazole (final concentration 30 μM) to depolymerize microtubules. Every viable isolated axon (see Experimental Procedures) within the microgrooves of the chamber was imaged following the bleaching protocol described above. The relative position of the midpoint for each kymograph was calculated (see Figure 7A for examples) and the mean midpoint displacement ± SEM was plotted for all axons (Figure 7B). […] To establish a mean velocity for dynein-GFP, we fitted each midpoint shift with a linear regression.
To directly test our hypothesis that interactions between dynein and kinesin-1 are required for the anterograde transport of dynein in the axon, we designed a peptide to block the interaction between DIC1 and KLC. We chose a 19-amino-acid-long sequence centered on the tryptophan in WD1 of DIC1a. […] Hippocampal neuronal cultures were pre-treated for 45–60 min with either DIC1a or control peptide, complexed with Chariot reagent for delivery across the plasma membrane. […] Consequently, the anterograde transport of dynein-GFP in the axon is critically dependent on the interaction between dynein subunit DIC1a and the KLCs of kinesin-1.
Live cell imaging of hippocampal cultures was performed in Hibernate E low fluorescence medium in a humidified temperature controlled (37°C) live cell chamber, on an Ultraview Vox (PerkinElmer) dual-imaging system mounted on an inverted Nikon Ti microscope with either 100× or 60× apochromat 1.49 NA oil-immersion objectives (Nikon), fully controlled by Volocity software (PerkinElmer). FRAP and slow axonal transport imaging used the spinning-disk confocal with an Ultraview Photokinesis unit for bleaching and a C9100-50 EM-CCD (Hamamatsu) camera. Near-TIRF imaging used the Nikon TIRF system with an EM-CCD C9100-13 camera (Hamamatsu). Image analysis was performed in FIJI ([Schindelin et al., 2012]) with follow up analysis in R (RStudio). Specifics for each experiment are listed in the Supplemental Experimental Procedures. […]
Slow axonal transport imaging and drug treatments
Axons were imaged with a 100X objective (Nikon). Acquisition speed was 1 frame every two seconds.
For Nocodazole and Taxol drug treatments, […] and 200 nM respective final concentrations were added
to each well of the microfluidic chamber in imaging media (Hibernate E Low Fluorescence media) 45-60
minutes prior to imaging, with hydrostatic pressure across the microgrooves of the microfluidic device to
ensure drugs reached the axons within the grooves.
Peptides were supplied by GenScript, and sequences are VCFYLLLQTWVFPYTHDLH and
LVQPLHFLTWDTCYFHYLV for Control and DIC1a-WD1 peptides respectively. […]

EB3 comets in the axon = assay: EB3-mCherry comet density in axons; assay type: cell-based, mouse; conditions: taxol 200 nM, 45-60 min pre-treatment, mean; DMSO control 0.12; p = 0.008
Method: Figure S5. Related to Figure 7.
The slow anterograde transport of dynein in the axon is not dependent on dynamic microtubules.
(A) Taxol treatment reduces the density of EB3 comets in the axon. Example kymographs (left) and quantification (right) of
EB3-mCherry comet density in DMSO control and taxol treated axons. Pre-treatment with taxol (200 nM final concentration) for
45-60 minutes prior to imaging reduces the density of EB3 comets in the axon from 0.12 to 0.03 comets/µm/min. Heavy line =
mean, box = sem, grey dots = individual axons. Axons were imaged at 1 frame per second for 3 minutes using live cell spinning
disk confocal microscopy. […]
neurons showing relative positions of anterograde and retrograde intercept (blue) and the calculated midpoint displacement […]
spots are the velocities for each measured kymograph with colour indicating the overall direction of the midpoint displacement. […]
Taxol mean velocity 0.020±0.004 µm/s. p value calculated by a two-sample t-test. […]
Cells were imaged with 60X objective with near-TIRF illumination to eliminate excessive fluorescence […]
every ten minutes, with stage position controlled by Velocity software. For quantification, a threshold was […]
the movie and integrated density of each neurite was measured over time. […]
to each well of the microfluidic chamber in imaging media (Hibernate E Low Fluorescence media) 45-60 […]

KLC1TPR = assay: Fluorescence polarization competition assay with TAMRA-labeled WD1pept; assay type: binding; conditions: 300 nM TAMRA-DICWD1 and 25 µM KLC TPR (approx. 70% saturation), increasing unlabeled peptide, Figure S3D; typically in triplicate
Method: Measurements were performed as previously described ([Pernigo et al., 2013]) with modifications as listed in Supplemental Experimental Procedures. […]
Log unlabelled peptide [nM]
Figure S3. Related to Figure 3.
(A-C) Isoforms of the mouse cytoplasmic dynein intermediate chain, based on data from (Kuta et al., 2010). The splice forms of DIC1 (A) and DIC2 (B) from the genes Dync1i1 and Dync1i2 respectively, relative to the longest isoform of each with key structural elements indicated: coiled coil required for NudE and p150 binding (McKenney et al., 2011; Nyarko et al., 2012); binding sites of the dynein light chains Tctex (Mok et al., 2001), LC8 (Lo et al., 2001) and Roadblock (Susalka et al., 2002); WD repeats 1-7 of the WD40 domain. Sequence alignments of all DIC isoforms centred on the two alternatively spliced regions: AS Loop 1 and AS Loop 2 (C). […]
(D) In a fluorescence polarization competition assay, TAMRA-labeled WD1pept bound to KLC1TPR is competed off with both unlabeled SKIPWD (with a single tryptophan motif) or a longer peptide encompassing both motifs (SKIPWDWE). […]
Fluorescence polarization measurements […]
[…] All fluorescence polarization (FP) measurements were carried out on a BMG Labtech PolarStar Omega plate reader at 20 °C by incubating 300 nM TAMRA-labeled peptides with His6-tagged KLC2TPR at increasing concentrations in 25 mM Hepes pH 7.5, 150 mM NaCl, 5 mM β-mercaptoethanol. […]

[2] = 500 ng peptide with Chariot reagent, mean ± SEM
[3] = 500 ng peptide with Chariot reagent

## COC(=O)Nc1nc2ccc(C(=O)c3cccs3)cc2[nH]1 [Nocodazole, nocodazole]
[1]; nocodazole, final concentration 30 μM, Figures 7A and 7B
  net motility / anterograde bias: abrogated the anterograde bias in transport seen in DMSO control neurons, with no net motility in either the anterograde or retrograde direction
[1]; nocodazole, final concentration 30 μM, linear regression, mean ± SEM, n = 22 axons, DMSO control 0.018 ± 0.005 μm/s
  mean velocity of dynein-GFP displacement: –0.001 ± 0.005 μm/s

## CC(=O)O[C@H]1C(=O)[C@@]2(C)[C@H]([C@H](OC(=O)c3ccccc3)[C@]3(O)C[C@H](OC(=O)[C@H](O)[C@@H](NC(=O)c4ccccc4)c4ccccc4)C(C)=C1C3(C)C)[C@]1(OC(C)=O)CO[C@@H]1C[C@@H]2O [Taxol, taxol]
EB3 comets in the axon
  density of EB3 comets in the axon: 0.03 comets/µm/min
[1]; taxol 200 nM, 45-60 min pre-treatment, mean ± sem, n = 39 axons, DMSO 0.023±0.005 µm/s, p = 0.6 two-sample t-test
  mean velocity of dynein-GFP displacement: 0.020±0.004 µm/s
[1]; taxol 200 nM, Figures S5B–S5D
  inhibition of anterograde bias of dynein transport: no inhibition in the anterograde bias of dynein transport

## LVQPLHFLTWDTCYFHYLV [DIC1a peptide]
[1]; all kymographs, mean ± SEM
  mean velocity of dynein-GFP: 0.012 ± 0.005 μm/s
[1]; 500 ng peptide with Chariot reagent, Figure 7E
  anterograde bias of dynein-GFP transport: substantial reduction in the anterograde bias of dynein-GFP transport
[1]; 500 ng peptide with Chariot reagent, all kymographs
  reduction of mean dynein-GFP velocity versus control peptide: over 50%
[1]; [2]
  mean velocity of anterograde only kymographs: 0.029 ± 0.003 μm/s
[1]; [3]
  kymographs with no or retrograde bias: 38%
[1]; 500 ng peptide with Chariot reagent, n = 29 axons
  kymographs showing anterograde velocities over 0.05 μm/s: complete loss

## STNLEWDDSAI [SKIPWD, unlabeled SKIP peptide with a single tryptophan motif]
KLC1TPR
  competition of WD1pept: compete off WD1pept in a concentration dependent manner

## STNLEWDDSAIAPSSEDYDFGDVFPAVPSTPR VPSTDWEDGDL [SKIPWDWE, longer SKIP peptide encompassing both motifs]
KLC1TPR
  competition of WD1pept: longer and higher affinity SKIPWDWE peptide doing so more efficiently

## VCFYLLLQTWVFPYTHDLH [control peptide]
[1]; all kymographs, mean ± SEM
  mean velocity of dynein-GFP: 0.029 ± 0.005 μm/s
[1]; [2]
  mean velocity of anterograde only kymographs: 0.036 ± 0.004 μm/s
[1]; [3]
  kymographs with no or retrograde bias: 15%
[1]; 500 ng peptide with Chariot reagent, n = 27 axons (control)
  kymographs with anterograde velocity over 0.05 μm/s: 22%
